Results as given in patent US5500416A, “Percutaneous absorption promoting agent and dermatologic preparation containing the same” (priority 1987, dated 1996).

Tested on: enucleated skin of a hairless mouse
Assay: Drug permeability test by in vitro diffusion cell
Assay type: in vitro ADME
Conditions: pH 7.2
Experimental: A drug permeability test was conducted for amine oxide, which is the product of the present invention.
Pharmaceutical samples comprising the following composition were prepared.
For an evaluation of the percutaneous absorption promoting effect of a drug with the test substance, a drug permeability test was conducted by in vitro diffusion cell, using the enucleated skin of a hairless mouse. As the diffusion cell device, a vertical film type 2-compartment cell with a diffusion area of 2 cm^2 was employed. The whole skin layer at the back of a 10 to 15 weeks old male hairless mouse was enucleated and mounted on a diffusion cell. In the cell compartment on the medicament sample side, 2 ml of a medicament sample was placed, and 2 ml of a phosphate buffer phisiological saline (pH 7.2) was placed in the cell compartment on the receptor side, and the whole cell maintained at 32° C. in a thermostat tank while gently stirring both phases. After 24 hours, the receptor solution was sampled and the amount of the drug permeated by high performance chromatography to the receptor side quantitated.

| Compound | Drug permeability [%] | Drug permeability (Table 5-1, hydroquinone 1.0%, test substance 0.1%, ethanol 20%, 24 hours, 32° C.) [%] |
| --- | --- | --- |
| CCCCCCCCCCCCCCCCCC[N+](C)(C)[O-] [Example 5-1, Dimethylstearylamine oxide] | 44.0 | – |
| CCCCCCCCCCCCCCCCCCCCCC[N+](C)(C)[O-] [Example 5-2, Dimethylbehenylamine oxide] | 28.6 | – |

Next, values leading:

| Drug permeability [%] | Drug permeability (Table 5-1, hydroquinone 1.0%, test substance 0.1%, ethanol 20%, 24 hours, 32° C.) [%] | Compound |
| --- | --- | --- |
| 30.5 | – | CCCCCCCCCCCCCCCCCC[N+]([O-])(CCO)CCO [Example 5-3, Dihyroxyethylstearylamine oxide] |
| – | 9.4 | CCCCCCCCCCCC[N+](C)(C)[O-] [Example 5-4, Dimethyllaurylamine oxide] |
| 11.8 | – | CCCCCCCCCCCCCC[N+](C)(C)[O-] [Example 5-5, Dimethylmyristylamine oxide] |
